The values below come from patent USRE38200E1, “Indole-2,3-dione-3-oxime derivatives” (NeuroSearch A/S, priority 1996, dated 2003).

pIC50: −log10 of the molar value. Structures can show the parent of a compound that is named as a salt.

As usually defined, the melting point is the temperature of the solid-liquid transition.

One data set concerns the target AMPA receptor. The data set is described as follows: 3H-AMPA binding (in vitro receptor affinity test). Further details: species or system rat. The conditions noted are these: cerebral cortex membranes from male Wistar rats; 3H-AMPA 5 nM; 30 minutes at 2° C.; read-out: IC50 (concentration of the test substance which inhibits the specific binding of 3H-AMPA by 50%). The source says: In an in vitro activity (receptor affinity) test, the chemical compounds of the present invention have been tested for their affinity for the AMPA receptor.
L-glutamate (GLU) is the major excitatory neurotransmitter in the mammalian central nervous system. From electro-physiological- and binding studies, there appear to be at least three subtypes of GLU receptors, tentatively named N-methyl-D-aspartate (NMDA) receptors, quisqualate receptors and kainate receptors. AMPA has been known for several years to be a potent and selective agonist at the traditionally named quisqualate receptors. Activation of quisqualate receptors by AMPA is associated with Na^+influx and K^+efflux leading to depolarisation. ^3H-AMPA is a selective radioligand for labelling the ionotropic quisqualate (AMPA) receptors.
Preparations are performed at 0-4° C. unless otherwise indicated. Cerebral cortex from male Wistar rats (150-200 g) is homogenised for 5-10 sec in 20 ml Tris-HCl (30 mM, pH 7.4) using an Ultra-Turrax™ homogeniser. The suspension is centrifuged at 27,000×g for 15 minutes and the pellet is washed three times with buffer (centrifuged at 27,000×g for 10 minutes). The washed pellet is homogenised in 20 ml of buffer and incubated on a water bath (of 37° C.) for 30 minutes to remove endogenous glutamate and then centrifuged for 10 minutes at 27,000×g. The pellet is then homogenised in buffer and centrifuged at for 10 minutes at 27,000×g. The final pellet is resuspended in 30 ml buffer and the preparation is frozen and stored at −20° C.
The membrane preparation is thawed and centrifuged at 2° C. for 10 minutes at 27,000×g. […] Non-specific binding is determined using L-glutamate (0.6 mM, final concentration).
After incubation the 550 μl samples are added 5 ml of ice-cold buffer and poured directly onto Whatman™ GF/C glass fibre filters under suction and immediately washed with 5 ml of ice-cold buffer. […] The amount of radioactivity on the filters is determined by conventional liquid scintillation counting. […]

Turning to `CN1CCc2c(-c3ccc(S(=O)(=O)N(C)C)cc3)cc3c(c2C1)NC(=O)C3=NOC1CCOC1=O` (centres unmarked) [8-methyl-5-(4-(N,N-dimethylsulfamoyl)phenyl)-6-7-8-9-tetrahydro-1H-pyrrolo[3,2-h]-isoquinoline-2,3-dione-3-O-(3-(2-oxo)tetrahydrofuryl) oxime, hydrochloride], the pIC50 at AMPA receptor was 6.82.
As to `CN1CCc2c(-c3ccc(S(=O)(=O)N(C)C)cc3)cc3c(c2C1)NC(=O)C3=NOC1CCOC1=O` (centres unmarked) (as salt: hydrochloride) [8-methyl-5-(4-(N,N-dimethylsulfamoyl)phenyl)-6-7-8-9-tetrahydro-1H-pyrrolo[3,2-h]-isoquinoline-2,3-dione-3-O-(3-(2-oxo)tetrahydrofuryl) oxime, hydrochloride], the melting point is 245 °C (dec.).
For the compound `CN1CCc2c(-c3ccc(S(=O)(=O)N(C)C)cc3)cc3c(c2C1)NC(=O)C3=NOC(CCO)C(=O)O` (centres unmarked) [8-methyl-5-(4-(N,N-dimethylsulfamoyl)phenyl)-6-7-8-9-tetrahydro-1H-pyrrolo[3,2-h]-isoquinoline-2,3-dione-3-O-(4-hydroxybutyric acid-2-yl)oxime sodium salt], the pIC50 at AMPA receptor was 7.30.
Same read-out and setting: the result for `CCOC(=O)CO/N=C1\C(=O)Nc2c1cc(-c1ccc(S(=O)(=O)N(C)C)cc1)c1c2CN(C)CC1` [8-methyl-5-(4-(N,N-dimethylsulfamoyl)phenyl-6,7,8,9-tetrahydro-1H-pyrrolo [3,2-h]isoquinoline-2,3-dione-3-O-(ethoxycarbonylmethyl) oxime] reads 7.00.
For `CN1CCc2c(-c3ccc(S(=O)(=O)N(C)C)cc3)cc3c(c2C1)NC(=O)C3=NOC(CCO)C(=O)O` (centres unmarked) (as salt: sodium) [8-methyl-5-(4-(N,N-dimethylsulfamoyl)phenyl)-6-7-8-9-tetrahydro-1H-pyrrolo[3,2-h]-isoquinoline-2,3-dione-3-O-(4-hydroxybutyric acid-2-yl)oxime sodium salt], the melting point is > 200 °C (dec.).
